Source: article PMC7504466, “In-Vitro and In-Silico Evaluations of Heterocyclic-Containing Diarylpentanoids as Bcl-2 Inhibitors Against LoVo Colorectal Cancer Cells” (Molecules, 2020)

Legend:
LoVo cells [1] = test: Morphological inspection; format: cell-based, human; conditions: 0.625-5 µM, 24 h post-treatment
Procedure: LoVo cells (5 × 10^4 cells/well) were seeded into a 12 well plate and incubated at 37 °C and 5% CO2 atmosphere for 24 h. Next, the culture media were replaced with 1 mL of test compounds at various concentration and further incubated for 24 h. The final concentration of DMSO in the well is 0.1%. The morphological changes of compound-treated cells were photographed using a fluorescent microscope.

NCI-H508 cells = test: MTT cytotoxicity assay, NCI-H508 cells; format: cell-based; conditions: Homo sapiens, 72 h post-treatment, read-out: IC50 (µM) BRAF NCI-H508
Procedure: (§1) The in-vitro cytotoxic activity of the synthesized compounds on seven human CRC cell lines including KRAS (T84, SW620, LoVo) and BRAF (HT29, NCI-H508, RKO and LS411N) mutated cells were determined by MTT assay as previously described. The IC50 values obtained are summarized in Table 2 in which 5-FU and normal human dermal fibroblasts (NHDF) were used as controls. Meanwhile, a heatmap (Figure 3) was also generated using GraphPad Prism v7.0 (GraphPad Software, La Jolla, CA, USA) to visualize the cytotoxic trends of synthesized compounds graphically.
(§2) A panel of KRAS (T84, SW620 and LoVo) and BRAF (HT29, NCI-H508, RKO and LS411N) mutated human CRC cell lines were grown in Dulbecco’s modified Eagle’s medium (DMEM) containing 10% fetal bovine serum (FBS) and 1% penicillin/streptomycin at 37 °C under 5% CO2 while NHDF cells were cultured in DMEM with 5% FBS under the same condition. The culture medium was replenished every two days until the cells reached 80–90% confluency for further usage. All cell lines (T84, ATCC®CCL-248™; SW620, ATCC®CCL-227™; LoVo, ATCC®CCL-229™; HT-29, ATCC®HTB-38; NCI-H508, ATCC®CCL-253™; RKO, ATCC®CRL-2577; LS411N, ATCC®CRL-2159; NHDF, ATCC® PCS-201-010™) were purchased from American Type culture Collections (ATCC, Manassas, VA, USA).
(§3) LoVo cells (1.5–5 × 10^3 cells/well) were seeded into a 96 well plate and incubated at 37 °C and 5% CO2 atmosphere for 24 h. On the following day, the cell media were replaced with 100 µL of test compounds at various concentration. The final concentration of DMSO in the well is 0.1%. After 72 h of incubation, culture medium was removed and 100 µL of MTT (thiazoyl blue tertrazolium bromide) solution (0.5 mg/mL in culture media) was added. The resultant plates were then further incubated at 37 °C for 4 h. Upon completion, the MTT solution was removed and the formazan salts formed were dissolved in 100 µL of DMSO. The absorbance was recorded with a microplate reader at 570 nm. The IC50 values of tested compounds were calculated from three independent experiments.

Bad = test: Western blot, Bad; format: cell-based, human; conditions: 5 µM, LoVo cells, detectable only after 48 h
Procedure: (§4) Lovo cells (1.5 × 10^4 cells/cm^2) were seeded in a T75 flask and incubated at 37 °C and 5% CO2 atmosphere overnight. The seeded cells were then treated with selected compounds at 5 µM of 2e for 24 h, 48 h, and 72 h. After treatment, the cells were harvested and lysed with phenylmethanesulfonyl fluoride (PMSF)-containing cell lysis buffer. The lysates were then centrifuged at 13,300× g for 15 min and the supernatant was collected. Protein concentrations of all samples were determined using a BCA assay kit (Thermo Scientific Inc., Waltham, MA, USA). Equal amounts of protein were electrophoresed in 12% and 20% SDS-polyacrylamide gel (SDS-PAGE), and electro-transferred onto a 0.22-μm polyvinyldene difluoride membrane. Each membrane was blocked with 5% (w/v) skim milk at room temperature for 1 h followed by overnight incubation with specific primary antibodies (1:1000) at 4 °C. Subsequently, the respective membrane was washed thrice with TBST (0.05% (v/v) of tween-20) followed by 1 h incubation with secondary antibody (1:10,000). Upon completion, the membrane was washed thrice with 1X Tris-Buffered Saline, 0.1% Tween® 20 Detergent (TBST) and the immune reactive bands were developed using SuperSignal West Dura Extended Duration Substrate (Thermo Scientific Inc., Waltham, MA, USA). […]

Bax = test: Western blot, Bax; format: cell-based, human; conditions: 5 µM, LoVo cells, detectable only after 48 h
Procedure: as §4

LoVo cells [2] = test: Cell cycle analysis (flow cytometry, propidium iodide); format: cell-based, human; conditions: 2.5 and 5 µM, 24 h
Procedure: LoVo cells (1 × 10^5 cells/well) were seeded into a 6-well plate and incubated at 37 °C and 5% CO2 atmosphere overnight. The seeded cells were then treated with different concentrations of tested compounds for 24 h. Upon completion, cells were trypsinized and washed with PBS followed by fixation with 70% ethanol overnight at 4 °C. Then, the fixed cells were centrifuged at 160× g for 5 min and the resultant cell pellet was washed twice with PBS. Subsequently, 20 μL of DNAse-free RNAse A solution (1 mg/mL) was added to the cell-containing PBS and further incubated for 15 min. Upon completion, 10 μL of propidium iodide staining buffer (10 mg/mL) was added and the resulting mixture was further incubated for 20 min at 4 °C in the dark. Lastly, samples were analyzed with a flow-cytometer (ACEA Biosciences, Inc., San Diego, CA, USA) at the PE channel. The values presented are the means ± SD of three independent experiments.

T84 cells = test: MTT cytotoxicity assay, T84 cells; format: cell-based; conditions: Homo sapiens, 72 h post-treatment, read-out: IC50 (µM) KRAS T84
Procedure: as §1, §2, §3

HT29 cells = test: MTT cytotoxicity assay, HT29 cells; format: cell-based; conditions: Homo sapiens, HT-29, 72 h post-treatment, read-out: IC50 (µM) BRAF HT29
Procedure: as §1, §2, §3

RKO cells = test: MTT cytotoxicity assay, RKO cells; format: cell-based; conditions: Homo sapiens, 72 h post-treatment, read-out: IC50 (µM) BRAF RKO
Procedure: as §1, §2, §3

SW620 cells = test: MTT cytotoxicity assay, SW620 cells; format: cell-based; conditions: Homo sapiens, SW-620, 72 h post-treatment, read-out: IC50 (µM) KRAS SW620
Procedure: as §1, §2, §3

[3] = test system: normal human dermal fibroblasts (NHDF); test: MTT cytotoxicity assay, normal human dermal fibroblasts; format: cell-based; conditions: 72 h post-treatment
Procedure: as §1, §2, §3

**Q.** For `O=C1C(=Cc2ccccc2Br)CSCC1=Cc1ccccc1Br` [Compound 2e, 3,5-Bis(2-bromobenzylidene)tetrahydro-4H-thiopyran-4-one], which “morphology of treated LoVo cells” value (LoVo cells [1]) is on record?
**A.** Its value is “shrink from an epithelial-like shape to a round shape”.

**Q.** And the IC50 (NCI-H508 cells)?
**A.** The IC50 was 1.1 µM.

**Q.** And the Bad expression (Bad)?
**A.** Its Bad expression is “up-regulation”.

**Q.** What about the Bax expression (Bax) of the same compound?
**A.** Its Bax expression is “up-regulation”.

**Q.** What about the cell cycle effect (LoVo cells [2]) of the same compound?
**A.** The cell cycle effect was “induce G2/M-phase cell arrest”.

**Q.** What about the IC50 (T84 cells) of the same compound?
**A.** The IC50 was 1.6 µM.

**Q.** What about the IC50 (HT29 cells) of the same compound?
**A.** The IC50 was 2.1 µM.

**Q.** And the IC50 (RKO cells)?
**A.** The IC50 was 1.2 µM.

**Q.** And the IC50 (SW620 cells)?
**A.** Its IC50 is 1.4 µM.

**Q.** What about the IC50 [3] of the same compound?
**A.** The IC50 was 7100 nM.
